Source: PubChem BioAssay AID747 (Structural Genomics Consortium, 2007)

molecular target: Sulfotransferase 1E1 (Homo sapiens) (UniProt P49888); assay: SULT1E1 thermal stabilisation by ligands, biophysical, StarGazer light scattering, human (AID 747); conditions: purified SULT1E1, StarGazer light scattering thermal shift; at 1 mM; stronger effect = higher value
Sequence (P49888 whole entry, looked up): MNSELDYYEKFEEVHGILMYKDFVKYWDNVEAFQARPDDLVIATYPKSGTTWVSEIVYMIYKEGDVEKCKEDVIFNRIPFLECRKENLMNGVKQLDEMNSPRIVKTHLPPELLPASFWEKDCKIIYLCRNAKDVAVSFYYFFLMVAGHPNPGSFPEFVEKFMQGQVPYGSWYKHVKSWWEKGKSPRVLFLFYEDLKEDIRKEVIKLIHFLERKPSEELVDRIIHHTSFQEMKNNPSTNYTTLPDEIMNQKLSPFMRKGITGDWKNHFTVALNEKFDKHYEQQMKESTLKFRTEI

Which Tagg shift does the source give for `NC(Cc1cc(I)c(Oc2ccc(O)c(I)c2)c(I)c1)C(=O)O` (stereo unspecified) here?
The Tagg shift was 2.6 °C.

How did the Tagg shift turn out when `COC(=O)CCC(C)C1CCC2C3CCC4CC(O)CCC4(C)C3CCC12C` (stereo unspecified) was run?
The Tagg shift was 1.2 °C.

For `CC(C)NCC(O)c1ccc(O)c(O)c1` (stereo unspecified), which Tagg shift is on record?
Its Tagg shift is 0 °C.

How did the Tagg shift turn out when `C[C@]12CC[C@H](OS(=O)(=O)O)CC1=CC[C@@H]1[C@@H]2CC[C@]2(C)C(=O)CC[C@@H]12` was run?
The Tagg shift was 1.1 °C.

Which Tagg shift does the source give for `CCCc1ccccc1O` here?
Its Tagg shift is 0 °C.

With `COc1cc(C=O)ccc1O` as the compound, how does the Tagg shift read?
The Tagg shift was 0 °C.

Which Tagg shift does the source give for `Oc1ccc2ccccc2c1` here?
Its Tagg shift is 0 °C.

With `Cc1cccc(Nc2ccccc2C(=O)O)c1C` as the compound, how does the Tagg shift read?
The Tagg shift was 2.35 °C.

`Cc1ccc(O)cc1` was tested. Which Tagg shift did it give?
Its Tagg shift is 0 °C.

How did the Tagg shift turn out when `Oc1c(Cl)c(Cl)c(Cl)c(Cl)c1Cl` was run?
The Tagg shift was 0 °C.

How did the Tagg shift turn out when `Oc1cccc2ccccc12` was run?
Its Tagg shift is 0 °C.

Which Tagg shift does the source give for `Cc1ncc(COP(=O)(O)O)c(C=O)c1O` here?
Its Tagg shift is 3.95 °C.

How did the Tagg shift turn out when `O=[N+]([O-])c1cc(Cl)c(O)c(Cl)c1` was run?
Its Tagg shift is 1.4 °C.

Which Tagg shift does the source give for `O=c1c(O)c(-c2ccc(O)c(O)c2)oc2cc(O)cc(O)c12` here?
The Tagg shift was 1.95 °C.

For `O=C(O)c1ccccc1O`, which Tagg shift is on record?
Its Tagg shift is 0 °C.

For `C[C@H]1CCC[C@H](O)CCC/C=C/c2cc(O)cc(O)c2C(=O)O1`, which Tagg shift is on record?
Its Tagg shift is 1.3 °C.

For `Oc1ccc(/C=C/c2cc(O)cc(O)c2)cc1`, which Tagg shift is on record?
Its Tagg shift is 2.25 °C.

`C[C@]12CC[C@@H]3c4cc(O)c(O)cc4CC[C@H]3[C@@H]1CC[C@@H]2O` was tested. Which Tagg shift did it give?
The Tagg shift was 1.55 °C.

For `Nc1ccc(O)cc1`, which Tagg shift is on record?
The Tagg shift was 0 °C.

For `CCc1ccccc1O`, which Tagg shift is on record?
Its Tagg shift is 0 °C.

Which Tagg shift does the source give for `NC[C@H](O)c1ccc(O)c(O)c1` here?
Its Tagg shift is 0 °C.

With `NCCc1ccc(O)c(O)c1` as the compound, how does the Tagg shift read?
The Tagg shift was 0 °C.

`CCC(C)c1ccccc1O` (stereo unspecified) was tested. Which Tagg shift did it give?
The Tagg shift was 0 °C.

Which Tagg shift does the source give for `CNCC(O)c1ccc(O)c(O)c1` (stereo unspecified) here?
The Tagg shift was 0 °C.

For `C[C@]12CC[C@@H]3c4ccc(O)cc4CC[C@H]3[C@@H]1CCC2=O`, which Tagg shift is on record?
The Tagg shift was 1.1 °C.

`CN1CCc2cccc3c2C1Cc1ccc(O)c(O)c1-3` (stereo unspecified) was tested. Which Tagg shift did it give?
Its Tagg shift is 0 °C.
